The source of these data is ChEMBL document CHEMBL4477270, “Design, synthesis, and protein methyltransferase activity of a unique set of constrained amine containing compounds” (Bioorg Med Chem Lett, 2016).

SMILES strings stand for the structures. Calls of active or inactive are those of the source. The rule behind the calls is not given here. A value given as a limit tells only on which side of the number the result lay.

In experiment [1] the target is Protein arginine N-methyltransferase 5 (Homo sapiens) (UniProt O14744). Nature of the experiment: Inhibition of PRMT5 (unknown origin) using biotin-labeled histone substrate assessed as residual activity at 50 uM in presence of [3H-Me]SAM by scintillation proximity assay relative to control. For orientation: SPA uses beads or plates that emit light when radiolabelled molecules are held near them.

In experiment [2] the target is Protein arginine N-methyltransferase 6 (Homo sapiens) (UniProt Q96LA8). Nature of the experiment: Inhibition of PRMT6 (unknown origin) using biotin-labeled histone substrate assessed as residual activity at 50 uM in presence of [3H-Me]SAM by scintillation proximity assay relative to control.
The target of experiment [3] is T1, Protein arginine N-methyltransferase 7 (Homo sapiens) (UniProt Q9NVM4).
T1 sequence (whole entry): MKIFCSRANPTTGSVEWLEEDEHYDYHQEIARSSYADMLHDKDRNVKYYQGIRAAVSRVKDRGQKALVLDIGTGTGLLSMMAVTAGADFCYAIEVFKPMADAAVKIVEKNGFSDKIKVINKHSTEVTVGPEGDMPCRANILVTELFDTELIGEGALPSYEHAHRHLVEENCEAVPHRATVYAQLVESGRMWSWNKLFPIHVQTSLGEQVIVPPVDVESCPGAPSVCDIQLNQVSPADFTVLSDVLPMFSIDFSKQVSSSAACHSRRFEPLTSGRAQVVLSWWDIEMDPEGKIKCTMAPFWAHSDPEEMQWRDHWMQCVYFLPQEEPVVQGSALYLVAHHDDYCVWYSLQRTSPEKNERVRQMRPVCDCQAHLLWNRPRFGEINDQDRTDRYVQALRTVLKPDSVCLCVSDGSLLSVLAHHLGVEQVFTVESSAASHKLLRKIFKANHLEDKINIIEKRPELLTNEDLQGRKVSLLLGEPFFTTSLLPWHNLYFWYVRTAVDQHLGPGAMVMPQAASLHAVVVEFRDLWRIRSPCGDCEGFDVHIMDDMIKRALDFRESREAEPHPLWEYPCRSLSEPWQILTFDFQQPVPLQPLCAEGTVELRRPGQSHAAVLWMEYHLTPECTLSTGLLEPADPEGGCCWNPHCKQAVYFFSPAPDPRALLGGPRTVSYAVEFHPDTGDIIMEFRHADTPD
Nature of the experiment: Inhibition of PRMT7 (unknown origin) using biotin-labeled histone substrate assessed as residual activity at 50 uM in presence of [3H-Me]SAM by scintillation proximity assay relative to control.

For experiment [4], the target named is T2, Histone-lysine N-methyltransferase SMYD3 (Homo sapiens) (UniProt Q9H7B4).
T2 sequence (whole entry): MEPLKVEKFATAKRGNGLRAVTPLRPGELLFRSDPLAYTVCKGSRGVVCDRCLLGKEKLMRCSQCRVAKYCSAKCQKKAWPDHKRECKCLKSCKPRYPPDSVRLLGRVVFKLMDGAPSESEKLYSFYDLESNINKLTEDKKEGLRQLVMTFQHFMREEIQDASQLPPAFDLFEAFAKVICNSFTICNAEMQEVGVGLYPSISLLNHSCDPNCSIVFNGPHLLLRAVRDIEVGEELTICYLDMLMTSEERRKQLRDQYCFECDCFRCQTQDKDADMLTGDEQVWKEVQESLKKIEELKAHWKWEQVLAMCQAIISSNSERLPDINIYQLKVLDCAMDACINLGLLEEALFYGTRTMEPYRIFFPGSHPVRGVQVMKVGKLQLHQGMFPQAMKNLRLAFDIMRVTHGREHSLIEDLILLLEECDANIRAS
Nature of the experiment: Inhibition of SMYD3 (unknown origin) using biotin-labeled histone substrate assessed as residual activity at 50 uM in presence of [3H-Me]SAM by scintillation proximity assay relative to control.

The target of experiment [5] is Histone-lysine N-methyltransferase 2A (Homo sapiens) (UniProt Q03164). Nature of the experiment: Inhibition of MLL1 (unknown origin) using biotin-labeled histone substrate assessed as residual activity at 50 uM in presence of [3H-Me]SAM by scintillation proximity assay relative to control.
The target of experiment [6] is Histone-lysine N-methyltransferase, H3 lysine-79 specific (Homo sapiens) (UniProt Q8TEK3). Nature of the experiment: Inhibition of DOT1L (unknown origin) using biotin-labeled histone substrate assessed as residual activity at 50 uM in presence of [3H-Me]SAM by scintillation proximity assay relative to control.
For experiment [7], the target named is T3, N-lysine methyltransferase KMT5A (Homo sapiens, UniProt Q9NQR1).
T3 sequence (Q9NQR1 whole entry): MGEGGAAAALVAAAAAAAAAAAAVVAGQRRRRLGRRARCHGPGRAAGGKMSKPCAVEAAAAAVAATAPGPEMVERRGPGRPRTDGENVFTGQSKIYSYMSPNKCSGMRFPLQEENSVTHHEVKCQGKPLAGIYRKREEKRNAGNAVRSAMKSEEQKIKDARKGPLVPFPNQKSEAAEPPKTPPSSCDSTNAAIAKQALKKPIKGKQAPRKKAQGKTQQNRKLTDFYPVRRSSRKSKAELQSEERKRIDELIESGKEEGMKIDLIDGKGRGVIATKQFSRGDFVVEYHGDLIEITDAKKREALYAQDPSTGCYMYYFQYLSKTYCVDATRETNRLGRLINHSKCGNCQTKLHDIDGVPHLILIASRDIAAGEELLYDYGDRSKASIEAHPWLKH
Nature of the experiment: Inhibition of SETD8 (unknown origin) using biotin-labeled histone H4 (1 to 24 residues) as substrate in presence of [3H-Me]SAM by scintillation proximity assay.

For experiment [8], the target named is Protein arginine N-methyltransferase 8 (Homo sapiens) (UniProt Q9NR22). Nature of the experiment: Inhibition of PRMT8 (unknown origin) using biotin-labeled histone substrate assessed as residual activity at 50 uM in presence of [3H-Me]SAM by scintillation proximity assay relative to control.
Experiment [9] addresses T4, N-lysine methyltransferase KMT5A (Homo sapiens) (UniProt Q9NQR1).
T4 sequence (whole entry): T3 sequence (Q9NQR1 whole entry)
Nature of the experiment: Inhibition of SETD8 (unknown origin) using biotin-labeled histone H4 (1 to 24 residues) as substrate assessed as residual activity at 50 uM in presence of [3H-Me]SAM by scintillation proximity assay relative to control.

Experiment [10] has as its target Histone-lysine N-methyltransferase KMT5B (Homo sapiens) (UniProt Q4FZB7). Nature of the experiment: Inhibition of SUV420H1 (unknown origin) using biotin-labeled histone substrate assessed as residual activity at 50 uM in presence of [3H-Me]SAM by scintillation proximity assay relative to control.
Experiment [11] deals with Protein N-lysine methyltransferase METTL21A (Homo sapiens) (UniProt Q8WXB1). Nature of the experiment: Inhibition of METTL21A (unknown origin) using biotin-labeled histone substrate assessed as residual activity at 50 uM in presence of [3H-Me]SAM by scintillation proximity assay relative to control.
For experiment [12], the target named is Histone-lysine N-methyltransferase ASH1L (Homo sapiens) (UniProt Q9NR48). Nature of the experiment: Inhibition of ASH1L (unknown origin) using biotin-labeled histone substrate assessed as residual activity at 50 uM in presence of [3H-Me]SAM by scintillation proximity assay relative to control.
The target in experiment [13] is Histone-lysine N-methyltransferase SETDB1 (Homo sapiens) (UniProt Q15047). Nature of the experiment: Inhibition of SETDB1 (unknown origin) using biotin-labeled histone substrate assessed as residual activity at 50 uM in presence of [3H-Me]SAM by scintillation proximity assay relative to control.
Experiment [14] deals with T4, N-lysine methyltransferase KMT5A (Homo sapiens). Nature of the experiment: Binding affinity to SETD8 (unknown origin) in presence of S-adenosyl-L-homocysteine by isothermal titration calorimetry. (In general: In ITC the heat of successive injections is recorded.)

Chain of Histone-lysine N-methyltransferase 2A (Homo sapiens) (Q03164 1-2718 limits assumed): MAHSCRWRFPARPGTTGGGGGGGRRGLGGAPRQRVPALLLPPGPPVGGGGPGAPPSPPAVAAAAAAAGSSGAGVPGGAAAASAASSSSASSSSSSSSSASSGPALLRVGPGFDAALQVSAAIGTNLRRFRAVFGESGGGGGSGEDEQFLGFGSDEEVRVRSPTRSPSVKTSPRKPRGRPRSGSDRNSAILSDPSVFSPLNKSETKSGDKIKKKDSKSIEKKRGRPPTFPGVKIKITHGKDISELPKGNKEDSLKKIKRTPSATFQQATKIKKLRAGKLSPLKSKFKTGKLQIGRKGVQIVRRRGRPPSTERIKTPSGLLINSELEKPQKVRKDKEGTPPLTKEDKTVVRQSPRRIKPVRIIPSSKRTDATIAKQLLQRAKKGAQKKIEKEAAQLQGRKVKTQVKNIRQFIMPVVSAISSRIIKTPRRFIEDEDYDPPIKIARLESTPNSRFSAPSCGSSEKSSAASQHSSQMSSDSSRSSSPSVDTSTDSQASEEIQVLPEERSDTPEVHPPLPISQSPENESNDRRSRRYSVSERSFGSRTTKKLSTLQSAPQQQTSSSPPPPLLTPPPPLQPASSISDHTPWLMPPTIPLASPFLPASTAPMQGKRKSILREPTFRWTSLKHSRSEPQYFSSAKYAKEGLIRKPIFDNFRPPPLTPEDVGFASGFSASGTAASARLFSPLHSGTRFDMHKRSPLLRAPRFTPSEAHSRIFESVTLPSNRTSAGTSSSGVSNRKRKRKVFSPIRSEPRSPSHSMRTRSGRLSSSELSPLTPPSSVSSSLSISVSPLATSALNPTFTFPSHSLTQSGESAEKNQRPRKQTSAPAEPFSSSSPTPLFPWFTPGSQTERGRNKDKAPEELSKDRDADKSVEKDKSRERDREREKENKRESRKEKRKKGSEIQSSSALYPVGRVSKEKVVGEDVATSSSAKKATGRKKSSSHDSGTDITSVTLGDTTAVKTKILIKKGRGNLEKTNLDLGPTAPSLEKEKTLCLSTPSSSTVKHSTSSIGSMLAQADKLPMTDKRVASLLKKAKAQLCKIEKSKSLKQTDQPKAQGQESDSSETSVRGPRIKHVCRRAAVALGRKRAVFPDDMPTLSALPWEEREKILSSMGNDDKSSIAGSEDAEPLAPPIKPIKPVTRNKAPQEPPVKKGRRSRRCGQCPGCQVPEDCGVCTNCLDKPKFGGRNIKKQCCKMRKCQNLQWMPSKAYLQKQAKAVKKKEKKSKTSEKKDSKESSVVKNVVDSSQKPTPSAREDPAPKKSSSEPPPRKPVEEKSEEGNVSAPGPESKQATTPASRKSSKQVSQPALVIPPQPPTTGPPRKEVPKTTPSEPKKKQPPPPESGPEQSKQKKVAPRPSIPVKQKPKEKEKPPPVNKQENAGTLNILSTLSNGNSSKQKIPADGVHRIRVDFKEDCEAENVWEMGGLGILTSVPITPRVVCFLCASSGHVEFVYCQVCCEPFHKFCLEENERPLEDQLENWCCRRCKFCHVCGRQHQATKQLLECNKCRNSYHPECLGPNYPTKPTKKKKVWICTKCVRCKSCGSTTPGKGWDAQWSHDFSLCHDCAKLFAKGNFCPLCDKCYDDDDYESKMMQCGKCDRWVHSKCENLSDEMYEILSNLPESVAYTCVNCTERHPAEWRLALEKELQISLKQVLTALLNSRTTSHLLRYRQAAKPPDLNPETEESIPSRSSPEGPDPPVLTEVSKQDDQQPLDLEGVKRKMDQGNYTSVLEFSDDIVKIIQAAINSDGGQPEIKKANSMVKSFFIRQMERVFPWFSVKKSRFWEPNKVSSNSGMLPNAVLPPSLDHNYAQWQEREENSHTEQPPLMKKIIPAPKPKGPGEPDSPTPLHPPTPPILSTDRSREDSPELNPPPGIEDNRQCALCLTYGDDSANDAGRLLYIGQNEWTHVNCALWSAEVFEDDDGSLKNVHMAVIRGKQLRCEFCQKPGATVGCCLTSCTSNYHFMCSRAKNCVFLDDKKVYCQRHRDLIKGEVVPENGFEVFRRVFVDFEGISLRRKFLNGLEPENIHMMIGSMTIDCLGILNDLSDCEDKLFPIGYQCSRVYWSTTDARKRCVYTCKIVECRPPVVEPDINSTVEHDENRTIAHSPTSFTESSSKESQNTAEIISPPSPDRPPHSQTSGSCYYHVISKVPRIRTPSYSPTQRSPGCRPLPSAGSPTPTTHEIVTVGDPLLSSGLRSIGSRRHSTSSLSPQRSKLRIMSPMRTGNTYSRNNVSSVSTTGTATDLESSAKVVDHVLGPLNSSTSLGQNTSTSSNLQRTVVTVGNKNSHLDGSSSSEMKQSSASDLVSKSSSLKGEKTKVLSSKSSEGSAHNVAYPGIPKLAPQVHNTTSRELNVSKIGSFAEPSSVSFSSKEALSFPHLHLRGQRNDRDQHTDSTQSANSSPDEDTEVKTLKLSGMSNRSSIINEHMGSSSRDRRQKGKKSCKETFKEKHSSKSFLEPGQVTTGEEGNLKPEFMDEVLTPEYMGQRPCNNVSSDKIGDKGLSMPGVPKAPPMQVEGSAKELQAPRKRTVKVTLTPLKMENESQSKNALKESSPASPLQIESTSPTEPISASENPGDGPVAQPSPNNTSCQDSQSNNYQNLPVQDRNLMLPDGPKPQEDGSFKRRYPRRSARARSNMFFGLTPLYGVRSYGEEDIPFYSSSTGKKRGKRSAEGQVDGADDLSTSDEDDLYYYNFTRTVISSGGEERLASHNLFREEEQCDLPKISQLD
Chain of Histone-lysine N-methyltransferase 2A (Homo sapiens) (Q03164 2719-3969 limits assumed): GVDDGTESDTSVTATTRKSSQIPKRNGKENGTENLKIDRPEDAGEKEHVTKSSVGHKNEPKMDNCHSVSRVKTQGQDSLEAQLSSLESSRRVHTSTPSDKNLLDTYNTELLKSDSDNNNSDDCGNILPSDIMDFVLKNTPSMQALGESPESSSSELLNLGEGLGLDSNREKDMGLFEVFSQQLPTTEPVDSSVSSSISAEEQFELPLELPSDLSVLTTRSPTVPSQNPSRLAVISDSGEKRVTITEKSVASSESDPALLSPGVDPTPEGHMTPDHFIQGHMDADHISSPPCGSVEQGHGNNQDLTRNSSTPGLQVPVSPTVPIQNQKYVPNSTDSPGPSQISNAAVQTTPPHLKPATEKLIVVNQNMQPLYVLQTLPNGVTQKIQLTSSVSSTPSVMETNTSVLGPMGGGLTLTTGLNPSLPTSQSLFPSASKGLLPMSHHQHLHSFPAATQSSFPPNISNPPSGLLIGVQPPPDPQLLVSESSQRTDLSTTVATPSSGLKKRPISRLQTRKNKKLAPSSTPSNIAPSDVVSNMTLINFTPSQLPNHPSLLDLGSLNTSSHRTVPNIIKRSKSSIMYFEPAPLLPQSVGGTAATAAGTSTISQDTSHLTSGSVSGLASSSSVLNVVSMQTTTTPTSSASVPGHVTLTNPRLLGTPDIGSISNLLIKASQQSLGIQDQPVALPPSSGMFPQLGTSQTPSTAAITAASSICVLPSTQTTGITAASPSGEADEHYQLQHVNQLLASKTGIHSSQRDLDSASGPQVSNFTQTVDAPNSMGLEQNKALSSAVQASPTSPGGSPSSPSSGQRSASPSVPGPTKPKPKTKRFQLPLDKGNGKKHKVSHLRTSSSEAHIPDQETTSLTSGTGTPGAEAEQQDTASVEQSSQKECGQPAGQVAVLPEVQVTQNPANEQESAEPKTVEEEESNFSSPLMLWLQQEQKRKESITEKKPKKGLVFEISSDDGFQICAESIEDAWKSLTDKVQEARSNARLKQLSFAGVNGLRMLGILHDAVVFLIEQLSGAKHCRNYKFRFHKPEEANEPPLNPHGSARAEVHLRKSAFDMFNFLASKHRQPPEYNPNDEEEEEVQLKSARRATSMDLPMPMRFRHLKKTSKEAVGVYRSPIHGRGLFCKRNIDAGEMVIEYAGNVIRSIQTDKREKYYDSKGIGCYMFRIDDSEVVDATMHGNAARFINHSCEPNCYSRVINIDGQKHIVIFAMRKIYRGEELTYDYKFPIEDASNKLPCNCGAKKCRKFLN
Chain of Histone-lysine N-methyltransferase KMT5B (Homo sapiens) (Q4FZB7 whole entry, looked up): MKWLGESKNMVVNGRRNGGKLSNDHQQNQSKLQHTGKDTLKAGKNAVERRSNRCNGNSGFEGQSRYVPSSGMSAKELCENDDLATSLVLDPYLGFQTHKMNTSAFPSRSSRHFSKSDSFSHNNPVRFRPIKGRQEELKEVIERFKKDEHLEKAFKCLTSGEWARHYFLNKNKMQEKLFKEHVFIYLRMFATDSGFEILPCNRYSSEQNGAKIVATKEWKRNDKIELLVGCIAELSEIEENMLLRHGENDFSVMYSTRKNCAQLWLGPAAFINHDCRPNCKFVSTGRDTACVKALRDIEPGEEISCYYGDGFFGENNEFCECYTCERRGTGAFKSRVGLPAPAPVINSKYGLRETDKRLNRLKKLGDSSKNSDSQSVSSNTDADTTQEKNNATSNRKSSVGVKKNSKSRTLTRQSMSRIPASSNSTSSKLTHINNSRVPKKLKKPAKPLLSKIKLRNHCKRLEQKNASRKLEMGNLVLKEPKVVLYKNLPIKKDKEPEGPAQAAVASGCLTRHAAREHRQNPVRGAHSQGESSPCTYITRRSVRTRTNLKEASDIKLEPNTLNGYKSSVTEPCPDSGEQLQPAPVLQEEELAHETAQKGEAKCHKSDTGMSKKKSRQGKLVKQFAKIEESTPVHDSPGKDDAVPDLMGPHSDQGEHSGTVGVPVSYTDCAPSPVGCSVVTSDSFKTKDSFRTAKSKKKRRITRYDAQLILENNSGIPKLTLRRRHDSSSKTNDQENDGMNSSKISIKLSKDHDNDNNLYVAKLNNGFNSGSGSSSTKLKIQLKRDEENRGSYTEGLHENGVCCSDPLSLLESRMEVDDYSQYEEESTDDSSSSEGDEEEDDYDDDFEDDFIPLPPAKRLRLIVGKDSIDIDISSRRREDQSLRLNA
Chain of Protein N-lysine methyltransferase METTL21A (Homo sapiens) (Q8WXB1 whole entry): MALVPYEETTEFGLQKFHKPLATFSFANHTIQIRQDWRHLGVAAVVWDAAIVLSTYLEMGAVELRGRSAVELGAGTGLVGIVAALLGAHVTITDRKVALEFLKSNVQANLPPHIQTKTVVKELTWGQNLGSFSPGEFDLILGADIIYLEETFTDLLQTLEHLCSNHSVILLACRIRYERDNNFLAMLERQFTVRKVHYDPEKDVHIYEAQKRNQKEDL

As for `C[N+]1(C)CCCCC12CCN(C(=O)c1cccc(Br)c1)CC2`, the Activity in [1] stood at 103%; in experiment [2] it was 98%; in [3], 94%; in experiment [4], 100%; in experiment [5] it was 100%; in experiment [6] it was 96%. The Activity is 94% in experiment [8]; 49% in [9]; 99% in experiment [10]; 97% in experiment [11]; 85% in experiment [12]; 97% in [13]. Besides, the IC50 (usually the concentration that inhibits the measured activity by half) in [7] was over 200 µM.

In the case of `CN1CCCCC12CCN(C(=O)c1cccc(Br)c1)CC2`, the Activity in [1] is 104%; in experiment [2], 103%; in [3], 101%; in experiment [4] it was 87%; in [5] it was 115%; in [6] it was 101%. Moreover, the Activity in [8] is 101%; in experiment [9] it was 43%; in experiment [10] it was 104%; in experiment [11] it was 97%; in experiment [12] it was 98%; in [13] it was 108%. Further, in [7], the IC50 was over 200 µM.

As for `CN1CCC[C@@H]2CN(C(=O)c3cccc(Br)c3)C[C@@H]21`, the Activity in [1] came to 107%; in [2] it was 106%; in experiment [3] it was 107%; in [4], 112%; in [5] it was 107%; in [6], 97%. The Activity in experiment [8] was 97%; in experiment [9], 45%; in experiment [10], 106%; in [11], 108%; in experiment [12] it was 99%; in experiment [13], 101%. In [14], the result was inactive. Besides, in [7], the IC50 was 39 µM.
